In US10538555B2, “Macrocyclic inhibitors of the PD-1/PD-L1 and CD80(B7-1)/PD-L1 protein/protein interactions” (BRISTOL-MYERS SQUIBB COMPANY, priority 2014, dated 2020):
pIC50: −log10 of the molar value. Read-outs that look alike come from different tables or passages of the source. *1 amine or outer side, *2 acyl side, *3 side chain or, on linkers, in order; H or OH if unused. Where a SMILES comes first, the peptide text is derived from it. Bridges are numbered along the chain shown (N, C = ends). [ ]: non-standard residue; d: D form. ξ: configuration not given here. X5 = O=C(O)CC[C@H](N[*:1])C(=O)C1C[C@H](O)C[C@H]1C(=O)[*:2]; Trp(1-CH2COOH) = N[C@@H](Cc1cn(CC(=O)O)c2ccccc12)C(=O)O; Trp(βS-Me) = C[C@@H](c1c[nH]c2ccccc12)[C@H](N)C(=O)O; Phe(3,4,5-F3) = N[C@@H](Cc1cc(F)c(F)c(F)c1)C(=O)O; NMePhe(4-F) = CN[C@@H](Cc1ccc(F)cc1)C(=O)O; Phe(4-F) = N[C@@H](Cc1ccc(F)cc1)C(=O)O; Hyp = O=C(O)[C@@H]1C[C@@H](O)CN1; NMeF = CN[C@@H](Cc1ccccc1)C(=O)O; X1 = O=C([C@H]1COCCN1[*:1])[*:2]; hIle(4ξ) = CCC(C)C[C@H](N)C(=O)O; NMeNle = CCCC[C@H](NC)C(=O)O; NMeV = CN[C@H](C(=O)O)C(C)C; dPip = O=C(O)[C@H]1CCCCN1; NMeA = CN[C@@H](C)C(=O)O; Orn = NCCC[C@H](N)C(=O)O; dNMeA = CN[C@H](C)C(=O)O; Dab = NCC[C@H](N)C(=O)O; Dap = NC[C@H](N)C(=O)O; ξC = NC(CS)C(=O)O

Biological target: T1, Human PD-L1/PD-1 (Homo sapiens, UniProt Q9NZQ7)
T1 construct: TVMV protease cleavage site (C); made in house; host or cells: HEK293T cells
T1 sequence (Q9NZQ7 with tags, fused parts or gaps): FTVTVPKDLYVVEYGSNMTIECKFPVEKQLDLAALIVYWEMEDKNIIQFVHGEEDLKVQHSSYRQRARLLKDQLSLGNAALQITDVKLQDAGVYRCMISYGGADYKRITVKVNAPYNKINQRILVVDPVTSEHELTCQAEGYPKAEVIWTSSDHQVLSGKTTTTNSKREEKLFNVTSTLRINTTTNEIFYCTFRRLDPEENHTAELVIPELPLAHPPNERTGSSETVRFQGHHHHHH
Experiment: HTRF Human PD-L1/PD-1 binding assay (PD-1-Ig/PD-L1-His)
Conditions: PD-L1-His 10 nM, PD-1-Ig 20 nM
Summary of the method: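 Soluble HEK293T-expressed proteins: hPD-L1-His 10 nM, hPD-1-Ig 20 nM final. Cpd + PD-L1 15 min, + PD-1 15 min, + Eu anti-Ig 1 nM/APC anti-His 20 nM 30 min. Buffer dPBS, 0.1% BSA, 0.05% Tween-20. TR-FRET 665/620.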

[1] = class symbol, read-out: HTRF Human PD-L1/PD-1 Binding Assay IC50 Range
[2] = read-out: HTRF Human PD-L1/PD-1 Binding Assay IC50

CCCC[C@H]1C(=O)N2CCC[C@@H]2C(=O)N[C@@H](CC(=O)O)C(=O)N[C@@H](C(C)C)C(=O)N(C)[C@@H](Cc2ccc(F)cc2)C(=O)N[C@@H](CC(=O)O)C(=O)N2CCC[C@@H]2C(=O)N[C@@H](Cc2c[nH]c3ccccc23)C(=O)N[C@@H](Cc2ccc(O)cc2)C(=O)N[C@@H](CC(C)C)C(=O)N[C@H](C(=O)NCC(N)=O)CSCC(=O)N[C@@H](Cc2ccc(F)cc2)C(=O)N(C)[C@@H](Cc2ccccc2)C(=O)N1C [Example 10110] ({CH2CO}-[Phe(4-F)][NMeF][NMeNle][dP]DV[NMePhe(4-F)]D[dP]WYLCG-NH2; thioether N-13)
pIC50 [1]: 8.00 to 9.00

CCCC[C@H]1C(=O)N2CCC[C@@H]2C(=O)N[C@@H](CC(=O)O)C(=O)N[C@@H](C(C)C)C(=O)N(C)[C@@H](C(C)C)C(=O)N[C@@H](Cc2ccc(O)cc2)C(=O)N2CCCC[C@@H]2C(=O)N[C@@H](Cc2c[nH]c3ccccc23)C(=O)N[C@@H](Cc2ccc(O)cc2)C(=O)N[C@@H](CC(C)CC)C(=O)N[C@H](C(=O)NCC(N)=O)CSCC(=O)N[C@@H](Cc2ccc(F)cc2)C(=O)N(C)[C@@H](Cc2ccccc2)C(=O)N1C (stereo partly drawn) [Example 9242] ({CH2CO}-[Phe(4-F)][NMeF][NMeNle][dP]DV[NMeV]Y[dPip]WY[hIle(4ξ)]CG-NH2; thioether N-13)
pIC50 [1]: 5.00 to 6.00

CCCC[C@H]1C(=O)N(C)[C@@H](CCCC)C(=O)N[C@@H](CC(C)C)C(=O)N[C@H](C(=O)NCC(N)=O)CSCC(=O)N[C@@H](Cc2ccc(O)cc2)C(=O)N(C)[C@@H](C)C(=O)N[C@@H](CC(=O)O)C(=O)N2CCC[C@H]2C(=O)N[C@@H](Cc2cnc[nH]2)C(=O)N[C@@H](CCC(N)=O)C(=O)N2C[C@H](O)C[C@H]2C(=O)N[C@@H](Cc2c[nH]c3ccccc23)C(=O)N[C@@H](CCN)C(=O)N[C@@H](Cc2cn(CC(=O)O)c3ccccc23)C(=O)N1C [Example 6416] ({CH2CO}-Y[NMeA]DPHQ[Hyp]W[Dab][Trp(1-CH2COOH)][NMeNle][NMeNle]LCG-NH2; thioether N-14)
pIC50 [1]: 7.00 to 8.00

CCCC[C@H]1C(=O)N(C)[C@@H](CCCC)C(=O)N[C@@H](C)C(=O)N[C@H](C(=O)NCC(N)=O)CSCC(=O)NC(Cc2ccc(O)cc2)C(=O)N2CCCC[C@H]2C(=O)N[C@@H](CC(N)=O)C(=O)N2CCC[C@H]2C(=O)N[C@@H](Cc2c[nH]cn2)C(=O)N[C@@H](CC(C)C)C(=O)N2C[C@H](O)C[C@H]2C(=O)N[C@@H](Cc2c[nH]c3ccccc23)C(=O)N[C@@H](CO)C(=O)N[C@@H](Cc2c[nH]c3ccccc23)C(=O)N1C (stereo partly drawn) [Example 1251]
pIC50 [1]: 8.00 to 9.00

CCCC[C@H]1C(=O)N[C@@H](CC(=O)O)C(=O)N2CCC[C@H]2C(=O)N[C@@H](Cc2c[nH]cn2)C(=O)N[C@@H](CCC(N)=O)C(=O)N2C[C@H](O)C[C@H]2C(=O)N[C@@H]([C@@H](C)c2c[nH]c3ccccc23)C(=O)N[C@@H](CO)C(=O)N[C@@H](Cc2c[nH]c3ccccc23)C(=O)N(C)[C@@H](C)C(=O)N(C)[C@@H](C)C(=O)N[C@@H](C)C(=O)N[C@H](C(=O)NCC(N)=O)CSCC(=O)N[C@@H](Cc2ccc(O)cc2)C(=O)N1C [Example 10539] ({CH2CO}-Y[NMeNle]DPHQ[Hyp][Trp(βS-Me)]SW[NMeA][NMeA]ACG-NH2; thioether N-14)
pIC50 [1]: 5.00 to 6.00

CCCC[C@H]1C(=O)N(C)[C@@H](CCCC)C(=O)N[C@@H](CCN)C(=O)NC(C(=O)NCC(N)=O)CSCC(=O)N[C@@H](Cc2ccc(O)cc2)C(=O)N(C)[C@@H](C)C(=O)N[C@@H](CC(N)=O)C(=O)N2CCC[C@H]2C(=O)N[C@@H](CC(N)=O)C(=O)N[C@@H](CC(C)C)C(=O)N2C[C@H](O)C[C@H]2C(=O)N[C@@H](Cc2c[nH]c3ccccc23)C(=O)N[C@@H](CO)C(=O)N[C@@H](Cc2c[nH]c3ccccc23)C(=O)N1C (stereo partly drawn) [Example 9164] ({CH2CO}-Y[NMeA]NPNL[Hyp]WSW[NMeNle][NMeNle][Dab][ξC]G-NH2; thioether N-14)
pIC50 [1]: 8.00 to 9.00

CC(C)C[C@@H]1NC(=O)[C@H](Cc2ccc(O)cc2)NC(=O)[C@H](Cc2c[nH]c3ccccc23)NC(=O)[C@@H](C)N(C)C(=O)[C@H](Cc2ccc(O)cc2)NC(=O)[C@H](Cc2ccccc2)N(C)C(=O)[C@H](C(C)C)NC(=O)[C@H](CC(=O)O)NC(=O)[C@@H](C)N(C)C(=O)[C@H](C)N(C)C(=O)[C@H](Cc2ccccc2)N(C)C(=O)[C@H](Cc2cc(F)c(F)c(F)c2)NC(=O)CSC[C@@H](C(=O)NCC(N)=O)NC1=O [Example 9188] ({CH2CO}-[Phe(3,4,5-F3)][NMeF][NMeA][dNMeA]DV[NMeF]Y[dNMeA]WYLCG-NH2; thioether N-13)
pIC50 [1]: 8.00 to 9.00

CCCC[C@H]1C(=O)N(C)[C@@H](CCCC)C(=O)N[C@@H](CC(C)C)C(=O)N[C@H](C(=O)NCC(N)=O)CSCC(=O)N[C@@H](Cc2ccc(OC)cc2)C(=O)N(C)[C@@H](C)C(=O)N[C@@H](CC(N)=O)C(=O)N2CCC[C@H]2C(=O)N[C@@H](Cc2c[nH]cn2)C(=O)N[C@@H](CCC(N)=O)C(=O)N2C[C@H](O)C[C@H]2C(=O)N[C@@H](Cc2c[nH]c3ccccc23)C(=O)N[C@@H](CO)C(=O)N[C@@H](Cc2c[nH]c3ccccc23)C(=O)N1C [Example 7135] ({CH2CO}-Y(Me)[NMeA]NPHQ[Hyp]WSW[NMeNle][NMeNle]LCG-NH2; thioether N-14)
pIC50 [2]: 8.25

CCCC[C@H]1C(=O)N2CCCC[C@@H]2C(=O)N[C@@H](CC(=O)O)C(=O)N[C@@H](C(C)C)C(=O)N(C)[C@@H](Cc2ccccc2)C(=O)N[C@@H](CCC(=O)O)C(=O)N2CCOC[C@@H]2C(=O)N[C@@H](Cc2c[nH]c3ccccc23)C(=O)N[C@@H](Cc2ccc(O)cc2)C(=O)N[C@@H](CCCN)C(=O)N[C@H](C(=O)NCC(N)=O)CSCC(=O)N[C@@H](Cc2cc(F)c(F)c(F)c2)C(=O)N(C)[C@@H](Cc2ccccc2)C(=O)N1C [Example 3641] ({CH2CO}-[Phe(3,4,5-F3)][NMeF][NMeNle][dPip]DV[NMeF]E[X1]WY[Orn]CG-NH2; thioether N-13)
pIC50 [1]: 7.00 to 8.00

CCCC[C@H]1C(=O)N(C)[C@@H](CCCC)C(=O)N[C@@H](CCCNC(=N)N)C(=O)N[C@H](C(=O)NCC(N)=O)CSCC(=O)N[C@@H](Cc2ccc(OC)cc2)C(=O)N(C)[C@@H](C)C(=O)N[C@@H](CC(N)=O)C(=O)N2CCC[C@H]2C(=O)N[C@@H](Cc2cnc[nH]2)C(=O)N[C@@H](CCC(=O)O)C(=O)C2C[C@H](O)C[C@H]2C(=O)N[C@@H](Cc2c[nH]c3ccccc23)C(=O)N[C@@H](CCN)C(=O)N[C@@H](Cc2c[nH]c3ccccc23)C(=O)N1C (stereo partly drawn) [Example 7085] ({CH2CO}-Y(Me)[NMeA]NPH[X5]W[Dab]W[NMeNle][NMeNle]RCG-NH2; thioether N-13)
pIC50 [1]: 8.00 to 9.00

CCCC[C@H]1C(=O)N(C)[C@@H](CCCC)C(=O)N[C@@H](CC(C)C)C(=O)N[C@H](C(=O)NCC(N)=O)CSCC(=O)N[C@@H](Cc2ccc(O)cc2)C(=O)N(C)[C@@H](C)C(=O)N[C@@H](CC(=O)O)C(=O)N2CCC[C@H]2C(=O)N[C@@H](CN)C(=O)N[C@@H](CCC(N)=O)C(=O)N2C[C@H](O)C[C@H]2C(=O)N[C@@H](Cc2c[nH]c3ccccc23)C(=O)N[C@@H](CCN)C(=O)N[C@@H](Cc2cn(CC(=O)O)c3ccccc23)C(=O)N1C [Example 5153] ({CH2CO}-Y[NMeA]DP[Dap]Q[Hyp]W[Dab][Trp(1-CH2COOH)][NMeNle][NMeNle]LCG-NH2; thioether N-14)
pIC50 [1]: 8.00 to 9.00

CCCC[C@H]1C(=O)N2CCC[C@@H]2C(=O)N[C@@H](CO)C(=O)N[C@@H](C(C)C)C(=O)N(C)[C@@H](Cc2ccccc2)C(=O)N[C@@H](Cc2ccc(O)cc2)C(=O)N2CCCC[C@@H]2C(=O)N[C@@H](Cc2c[nH]c3ccccc23)C(=O)N[C@@H](Cc2ccc(O)cc2)C(=O)N[C@@H](CC(C)C)C(=O)N[C@H](C(=O)NCC(N)=O)CSCC(=O)N[C@@H](Cc2ccccc2)C(=O)N(C)[C@@H](Cc2ccccc2)C(=O)N1C [Example 10064] ({CH2CO}-F[NMeF][NMeNle][dP]SV[NMeF]Y[dPip]WYLCG-NH2; thioether N-13)
pIC50 [1]: 7.00 to 8.00

CCCC[C@H]1C(=O)N(C)[C@H](C)C(=O)N[C@@H](CC(=O)O)C(=O)N[C@@H](C(C)C)C(=O)N(C)[C@@H](Cc2ccccc2)C(=O)N[C@@H](Cc2ccc(O)cc2)C(=O)N(C)[C@H](C)C(=O)N[C@@H](Cc2c[nH]c3ccccc23)C(=O)N[C@@H](Cc2ccc(O)cc2)C(=O)N[C@@H](CC(C)C)C(=O)N[C@H](C(=O)NCC(N)=O)CSCC(=O)N[C@@H](Cc2cc(F)c(F)c(F)c2)C(=O)N(C)[C@@H](Cc2ccccc2)C(=O)N1C [Example 3224] ({CH2CO}-[Phe(3,4,5-F3)][NMeF][NMeNle][dNMeA]DV[NMeF]Y[dNMeA]WYLCG-NH2; thioether N-13)
pIC50 [1]: 7.00 to 8.00

CCCC[C@H]1C(=O)N(C)[C@@H](CCCC)C(=O)N[C@@H](CCCN)C(=O)N[C@H](C(=O)NCC(N)=O)CSCC(=O)N[C@@H](Cc2ccc(O)cc2)C(=O)N2CCC[C@]2(C)C(=O)N[C@@H](CC(N)=O)C(=O)N2CCCC2C(=O)N[C@@H](Cc2cnc[nH]2)C(=O)N[C@@H](CC(C)C)C(=O)N2C[C@H](O)C[C@H]2C(=O)N[C@@H](Cc2c[nH]c3ccccc23)C(=O)N[C@@H](CO)C(=O)N[C@@H](Cc2c[nH]c3ccccc23)C(=O)N1C (stereo partly drawn) [Example 1241]
pIC50 [2]: 6.00

CCCC[C@H]1C(=O)N(C)[C@@H](CCCC)C(=O)N[C@@H](C)C(=O)N[C@H](C(=O)NCC(N)=O)CSCC(=O)N[C@@H](Cc2ccc(O)cc2)C(=O)N2CCCC[C@H]2C(=O)N[C@@H](CC(N)=O)C(=O)N2CCC[C@H]2C(=O)N[C@@H](Cc2cnc[nH]2)C(=O)N[C@@H](CCC(N)=O)C(=O)N2CCOC[C@H]2C(=O)N[C@@H](Cc2c[nH]c3ccccc23)C(=O)N[C@@H](CO)C(=O)N[C@@H](Cc2c[nH]c3ccccc23)C(=O)N1C [Example 1277]
pIC50 [1]: 7.00 to 8.00
